Assay [1] deals with T1, human NCX1 (Homo sapiens, UniProt P32418).
T1 construct: expressed in transfected cells
As to the kind of experiment: NCX1 inhibition, reverse mode (Ca2+ influx into cells), FLIPR Fluo-4 assay. The format is cell-based. Particulars: inhibition of NCX1 in reverse mode (Ca2+ influx into cells); read-out: NCX1rv IC50. In a few lines:
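Max−min Fluo-4 fluorescence (520 nm, FLIPR, 240 points at 2 s) after 20 µM final gramicidin, which drives Na+ loading and reverse-mode Ca2+ entry, gave % inhibition and IC50. Test compound was preincubated 45 min at 16 °C with Fluo-4-loaded CHO cells stably expressing human NCX1, in pH 7.4 buffer containing 3.5 mM CaCl2 and probenecid.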

Assay [2] deals with T1, human NCX1. As to the kind of experiment: NCX1 inhibition, forward mode (Ca2+ efflux out of cells), FLIPR calcium assay. The format is cell-based. Particulars: for IC50: CHO cells stably expressing human NCX1, read-out: NCX1fw IC50; for inhibition at 10 µM: CHO cells stably expressing human NCX1, read-out: Inhibition in % at 10 μM, IC50 value not determined. The source says: The sodium/calcium exchanger NCX1 can transport calcium ions and sodium ions through the cell membrane. The transport is an exchange of Ca^2+ and Na^+ in two directions depending on membrane potential and ion gradients. At the first direction, named “forward mode” or “calcium export mode”, Ca^2+ is transported out of the cell and Na^+ is transported into the cell. At the other direction, named “reverse mode” or “calcium import mode”, the transport directions are vice versa. The effect of the compounds of the invention on NCX1 was determined in CHO cells stably expressing human NCX1 (gene symbol SLC8A1; cf. WO 2009/115238). The assay is based on the monitoring of intracellular Ca^2+ concentrations using a calcium-sensitive fluorescence dye which is detected by means of a FLIPR device (Fluorimetric Imaging Plate Reader, Molecular Devices).
The assay is based on the monitoring of intracellular Ca^2+ concentrations using the PBX Calcium Assay Kit from BD (Becton, Dickinson and Company) with calcium indicator dye 51-9000177BKa (BD, 640177). CHO cells expressing NCX1 were loaded with the dye, and after a preincubation period with the test compound, Ionomycin (Calbiochem, 407950) was added. Ionomycin is an ionophor for Ca^2+ ions mediating an increase of intracellular Ca^2+ ions. Consequently, intracellular Ca^2+ ions are exchanged against extracellular Na^+ ions (Ca^2+ efflux, forward mode). The decrease of intracellular Ca^2+ ions was detected by measuring the fluorescence of the calcium indicator dye at a wavelength of 520 nm by a FLIPR device.
Briefly, similarly as for the reverse mode, for the forward mode transport assay 18000 cells per well were seeded into a 96 well microplate (Corning COSTAR 3904) and incubated overnight in culture medium (cf. above). A total volume of 100 μl medium per well was used. For the preparation of the FLIPR assay, the culture medium was removed from the plates and 100 μl of assay buffer (133.8 mM NaCl (Sigma, S5886); 4.7 mM KCl (Sigma, P3911); 1.25 mM MgCl2 (Merck, 1.05833.0250); 3.5 mM CaCl2(Merck, 1.02083.0250); 5 mM glucose (Sigma, G7021); 10 mM Hepes (Sigma, H4034); pH 7.4)) were added to each well in a washing step. Assay buffer was removed, and 100 μl of a solution of the test compound in assay buffer in different concentrations were added into the wells. Further, 100 μl of dye solution (0.09% (v/v) calcium indicator dye, 9.1% (v/v) signal enhancer (from PBX Calcium Assay Kit); in assay buffer) were added into each well. The plates were incubated in the dark at room temperature for 60 min. Meanwhile a 10 μM solution of Ionomycin in assay buffer (additionally containing 0.05% fetal calf serum (cf. above); 4° C.) was prepared and stored in the wells of a 96 well microplate (96 well microplate, polypropylene, U-shape (Greiner Bio-One, 650201)). The fluorescence monitoring was performed at 60 measuring points with measurement intervals of 2 sec. After the fifth measuring point, 50 μl of the Ionomycin solution were added to each well of the assay plate to give a final Ionomycin concentration of 2 μM. For the determination of the IC50 values the minimal fluorescence value was subtracted from the maximal fluorescence value for the fifteenth to fifty-fifth measuring points. The calculation of the IC50 values via the percentage inhibitions of Ca^2+ efflux out of cells (forward mode) effected by the test compound was performed in Biost@t Speed 2.0. “NCX1fw IC50” in Table 2 means the IC50 value for inhibition of NCX1 in forward mode (in μM (micromol/liter)).

In general, IC50 refers to the concentration that gives 50% inhibition. Broadly, the inhibition is the percentage by which the read-out fell short of the control.

Counter-ions that a name gives are not always drawn.

For the compound `Cc1ccc(F)cc1C1CCc2cc(Oc3ncc(C(=O)N(C)C)s3)ccc2O1` (stereo not drawn) [Example 348], the IC50 at human NCX1 [1] was found to be 0.64 µM; at human NCX1 [2] it was 0.8 µM.
Taken in the same sequence, the figures for `Cc1nc(Oc2ccc3c(c2)CCC(c2ccccc2)O3)sc1C(=O)NCc1ccncc1` (stereo not drawn) [Example 59, hydrochloride] were 0.1 µM and 0.2 µM.
On to `O=C(NCc1ccno1)c1cnc(Oc2ccc3c(c2)CCC(c2cccnc2)O3)s1` (stereo not drawn) [Example 58, hydrochloride], for which the 50% inhibitory concentration (IC50) at human NCX1 [1] came to 0.6 µM; on human NCX1 [2], 8.3 µM.
For `O=C(NCc1nnc2n1CCC2)c1cnc(Oc2ccc3c(c2)CCC(c2ccccc2)O3)s1` (stereo not drawn) [Example 2, 2-(2-Phenyl-chroman-6-yloxy)-thiazole-5-carboxylic acid (6,7-dihydro-5H-pyrrolo[2,1-c][1,2,4]triazol-3-ylmethyl)-amide], in that order: 0.3 µM and 1.9 µM.
For `Cc1c(CNC(=O)c2cnc(Oc3ccc4c(c3)CCC(c3ccccc3)O4)s2)cnn1C` (stereo not drawn) [Example 14, 2-(2-Phenyl-chroman-6-yloxy)-thiazole-5-carboxylic acid (1,5-dimethyl-1H-pyrazol-4-ylmethyl)-amide], in that order: 0.3 µM and 2.2 µM.
Regarding `O=C(O)C1CN(C(=O)c2cnc(Oc3ccc4c(c3)CC[C@@H](c3ccccc3)O4)s2)CC1C(F)(F)F` (stereo partly drawn) [Example 243], at human NCX1 [1], the 50% inhibitory concentration (IC50) was 0.7 µM. Further, the inhibition at 10 µM on human NCX1 [2] came to 19%.
For `O=C(c1cnc(Oc2ccc3c(c2)CC[C@@H](c2ccccc2)O3)s1)N1CCOCC1` [Example 214], the IC50 came out at 0.5 µM at human NCX1 [1] and 4.5 µM on human NCX1 [2].
For `c1ccc(C2CCc3cc(Oc4ncc(CNC5CC5)s4)ccc3O2)cc1` (stereo not drawn) [Example 103], in that order: 0.2 µM and 3.1 µM.
Consider `O=C(NCCN1CCNC1=O)c1csc(Oc2ccc3c(c2)CC[C@@H](c2ccccc2)O3)n1` [Example 352], for which the IC50 on human NCX1 [1] is 0.21 µM. Also, at human NCX1 [2], the inhibition at 10 µM turned out to be 31%.
Taken in the same sequence, the figures for `Cc1ccccc1[C@H]1CCc2cc(Oc3ncc(C(=O)NCCO)s3)ccc2O1` [Example 325, 2-((R)-2-o-Tolyl-chroman-6-yloxy)-thiazole-5-carboxylic acid (2-hydroxy-ethyl)-amide] were 0.2 µM and 26%.
For the compound `Cc1ccccc1C1CCc2cc(Oc3nc(C)c(C(=O)NCCO)s3)ccc2O1` (stereo not drawn) [Example 335], the IC50 at human NCX1 [1] is 0.3 µM; on human NCX1 [2], 0.9 µM.
For `CC(NC(=O)c1cnc(Oc2ccc3c(c2)CCC(c2cccc(F)c2)O3)s1)c1ccncc1` (stereo not drawn) [Example 13, hydrochloride], the IC50 is 0.3 µM at human NCX1 [1] and 0.9 µM at human NCX1 [2].
For `Cc1ccccc1C1CCc2cc(Oc3ncc(C(=O)NCCN4CCNC4=O)s3)ccc2O1` (stereo not drawn) [Example 216, 2-(2-o-Tolyl-chroman-6-yloxy)-thiazole-5-carboxylic acid [2-(2-oxo-imidazolidin-1-yl)-ethyl]-amide], the results for the IC50 at human NCX1 [1] and at human NCX1 [2] were 0.3 µM and 1.9 µM, respectively.
On to `O=C(NCc1ccncn1)c1cnc(Oc2ccc3c(c2)CCC(c2ccccc2)O3)s1` (stereo not drawn) [Example 32], for which the IC50 on human NCX1 [1] was found to be 0.6 µM. The inhibition at 10 µM on human NCX1 [2] worked out at 27%.
As for `O=C(NCc1nnc2n1CCC2)c1cnc(Oc2ccc3c(c2)CCC(c2cccc(F)c2)O3)s1` (stereo not drawn) [Example 20, hydrochloride], the IC50 at human NCX1 [1] amounted to 0.2 µM; on human NCX1 [2], 1.2 µM.
With `c1ccc(C2CCc3cc(Oc4ncc(CNCc5ccncc5)s4)ccc3O2)cc1` (stereo not drawn) [Example 134, [2-(2-Phenyl-chroman-6-yloxy)-thiazol-5-ylmethyl]-pyridin-4-ylmethyl-amine], the IC50 amounted to 0.2 µM on human NCX1 [1] and 2.6 µM on human NCX1 [2].
For the compound `O=C(NCc1ccncc1)c1cnc(Oc2ccc3c(c2)CCC(c2cccc(F)c2)O3)s1` (stereo not drawn) [Example 18, hydrochloride], the values for the half-maximal inhibitory concentration (IC50) on human NCX1 [1] and at human NCX1 [2] were 0.2 µM and 0.6 µM, respectively.
Turning to `CCCNC(=O)c1cnc(Oc2ccc3c(c2)CCC(c2ccccc2)O3)s1` (stereo not drawn) [Example 321, 2-(2-Phenyl-chroman-6-yloxy)-thiazole-5-carboxylic acid propylamide], the results for the IC50 at human NCX1 [1] and on human NCX1 [2] were 0.4 µM and 1.5 µM, respectively.
Taken in the same sequence, the figures for `O=C(NCc1ccnc(Cl)c1)c1cnc(Oc2ccc3c(c2)CCC(c2ccccc2)O3)s1` (stereo not drawn) [Example 39, 2-(2-Phenyl-chroman-6-yloxy)-thiazole-5-carboxylic acid (2-chloro-pyridin-4-ylmethyl)-amide] were 0.3 µM and 1.2 µM.
Taken in the same sequence, the figures for `COC(=O)[C@@H](C)NC(=O)c1cnc(Oc2ccc3c(c2)CCC(c2cccnc2)O3)s1` (stereo partly drawn) [Example 275] were 3.1 µM and 9.9 µM.
Taken in the same sequence, the figures for `O=C(NC1C2CNCC21)c1cnc(Oc2ccc3c(c2)CC[C@@H](c2ccccc2)O3)s1` (stereo partly drawn) [Example 255] were 0.3 µM and 0.6 µM.
For `O=C(NC(CCO)C1CC1)c1cnc(Oc2ccc3c(c2)CC[C@@H](c2ccccc2)O3)s1` (stereo partly drawn) [Example 206], the IC50 was 0.3 µM at human NCX1 [1] and 1.6 µM on human NCX1 [2].
For the compound `COC(=O)C(C)(C)NC(=O)c1cnc(Oc2ccc3c(c2)CC[C@@H](c2ccccc2)O3)s1` [Example 182], the IC50 at human NCX1 [1] is 0.6 µM. For the same compound, the inhibition at 10 µM on human NCX1 [2] worked out at 8%.
On to `O=C(NCc1ccncc1)c1sc(Oc2ccc3c(c2)CCC(c2ccccc2)O3)nc1Cl` (stereo not drawn) [Example 177, 4-Chloro-2-(2-phenyl-chroman-6-yloxy)-thiazole-5-carboxylic acid (pyridin-4-ylmethyl)-amide hydrochloride], for which the IC50 at human NCX1 [1] was determined as 0.3 µM; on human NCX1 [2], 0.8 µM.
For the compound `Cc1nn(C)c(C)c1S(=O)(=O)NCc1cnc(Oc2ccc3c(c2)CCC(c2ccccc2)O3)s1` (stereo not drawn) [Example 125, 1,3,5-Trimethyl-1H-pyrazole-4-sulfonic acid [2-(2-phenyl-chroman-6-yloxy)-thiazol-5-ylmethyl]-amide], the half-maximal inhibitory concentration (IC50) on human NCX1 [1] was determined as 9.2 µM. At human NCX1 [2], the inhibition at 10 µM amounted to 20%.
In the case of `CCOC(=O)[C@@H]1CCCC[C@@H]1NC(=O)c1cnc(Oc2ccc3c(c2)CC[C@@H](c2ccccc2)O3)s1` [Example 189], at human NCX1 [1], the concentration for half-maximal inhibition (IC50) was found to be 0.6 µM. Moreover, the inhibition at 10 µM at human NCX1 [2] turned out to be 17%.
On to `c1ccc(C2CCc3cc(Oc4ncc(CNCc5cn6ccsc6n5)s4)ccc3O2)cc1` (stereo not drawn) [Example 158], for which the 50% inhibitory concentration (IC50) on human NCX1 [1] is 0.3 µM. For the same compound, the inhibition at 10 µM on human NCX1 [2] stood at 46%.

The values above are taken from patent publication US20140243292A1, “SUBSITUTED 2-(CHROMAN-6-YLOXYL)-THIAZOLES AND THEIR USE AS PHARMACEUTICALS” (Sanofi, priority 2011, published 2014).
